Measured values published in the supplement of paper PMC10307832.

What was measured:
Experiment in all cases: relative viability (nuclei count vs DMSO), 5 days (fraction); higher = more cells survive
SW 1573 = test system: SW 1573
Method in brief: (§1)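 Dosing by pin tool came one day after lung cancer cell lines were seeded in 1536-well plates, using either one drug or a fixed anchor-drug dose plus five library-drug doses (not always all listed) in √10 steps. After 5 days, nuclei were counted on 4× images. Relative viability is treated-well nuclei count divided by vehicle-well nuclei count, and values are medians of duplicate plates.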

ChaGo-K-1 = test system: ChaGo-K-1
Method in brief: as §1

LCLC-103H = test system: LCLC-103H
Method in brief: as §1

NCI-H1666 = test system: NCI-H1666
Method in brief: as §1

SK-LU-1 = test system: SK-LU-1
Method in brief: as §1

NCI-H322M = test system: NCI-H322M
Method in brief: as §1

RERF-LC-KJ = test system: RERF-LC-KJ
Method in brief: as §1

NCI-H1563 = test system: NCI-H1563
Method in brief: as §1

NCI-H2342 = test system: NCI-H2342
Method in brief: as §1

NCI-H23 = test system: NCI-H23
Method in brief: as §1

SW 900 = test system: SW 900
Method in brief: as §1

Q: What does the source list for Cc1sc2c(c1C)C(c1ccc(Cl)cc1)=N[C@@H](CC(=O)OC(C)(C)C)c1nnc(C)n1-2 [JQ1] + COc1cc2c(Oc3ccc(NC(=O)C4(C(=O)Nc5ccc(F)cc5)CC4)cc3F)ccnc2cc1OCCCN1CCOCC1 [Foretinib] (partner 0.25 µM)?
A: relative viability (SW 1573; first compound 0.04 µM): 0.907; relative viability (SW 1573; first compound 0.1265 µM): 0.837; relative viability (SW 1573; first compound 0.4 µM): 0.777; relative viability (SW 1573; first compound 1.265 µM): 0.439; relative viability (SW 1573; first compound 4 µM): 0.384; relative viability (ChaGo-K-1; first compound 0.04 µM): 0.95; relative viability (ChaGo-K-1; first compound 0.1265 µM): 0.827; relative viability (ChaGo-K-1; first compound 0.4 µM): 0.929; relative viability (ChaGo-K-1; first compound 1.265 µM): 0.7; relative viability (ChaGo-K-1; first compound 4 µM): 0.583; relative viability (LCLC-103H; first compound 0.04 µM): 0.765; relative viability (LCLC-103H; first compound 0.1265 µM): 0.6; relative viability (LCLC-103H; first compound 0.4 µM): 0.562; relative viability (LCLC-103H; first compound 1.265 µM): 0.481; relative viability (LCLC-103H; first compound 4 µM): 0.301; relative viability (NCI-H1666; first compound 0.04 µM): 0.855; relative viability (NCI-H1666; first compound 0.1265 µM): 0.924; relative viability (NCI-H1666; first compound 0.4 µM): 0.818; relative viability (NCI-H1666; first compound 1.265 µM): 0.634; relative viability (NCI-H1666; first compound 4 µM): 0.653; relative viability (SK-LU-1; first compound 0.04 µM): 0.848; relative viability (SK-LU-1; first compound 0.1265 µM): 0.613; relative viability (SK-LU-1; first compound 0.4 µM): 0.787; relative viability (SK-LU-1; first compound 1.265 µM): 0.306; relative viability (SK-LU-1; first compound 4 µM): 0.153; relative viability (NCI-H322M; first compound 0.04 µM): 0.955; relative viability (NCI-H322M; first compound 0.1265 µM): 1.15; relative viability (NCI-H322M; first compound 0.4 µM): 0.753; relative viability (NCI-H322M; first compound 1.265 µM): 0.513; relative viability (NCI-H322M; first compound 4 µM): 0.441; relative viability (RERF-LC-KJ; first compound 0.04 µM): 0.939; relative viability (RERF-LC-KJ; first compound 0.1265 µM): 0.88; relative viability (RERF-LC-KJ; first compound 0.4 µM): 0.942; relative viability (RERF-LC-KJ; first compound 1.265 µM): 0.748; relative viability (RERF-LC-KJ; first compound 4 µM): 0.555; relative viability (NCI-H1563; first compound 0.04 µM): 0.96; relative viability (NCI-H1563; first compound 0.1265 µM): 0.733; relative viability (NCI-H1563; first compound 0.4 µM): 0.756; relative viability (NCI-H1563; first compound 1.265 µM): 0.681; relative viability (NCI-H1563; first compound 4 µM): 0.692; relative viability (NCI-H2342; first compound 0.04 µM): 1.09; relative viability (NCI-H2342; first compound 0.1265 µM): 0.843; relative viability (NCI-H2342; first compound 0.4 µM): 1.08; relative viability (NCI-H2342; first compound 1.265 µM): 0.91; relative viability (NCI-H2342; first compound 4 µM): 0.824; relative viability (NCI-H23; first compound 0.04 µM): 0.986; relative viability (NCI-H23; first compound 0.1265 µM): 0.772; relative viability (NCI-H23; first compound 0.4 µM): 0.546; relative viability (NCI-H23; first compound 1.265 µM): 0.558; relative viability (NCI-H23; first compound 4 µM): 0.297; relative viability (SW 900; first compound 0.04 µM): 0.699; relative viability (SW 900; first compound 0.1265 µM): 1.06; relative viability (SW 900; first compound 0.4 µM): 0.377; relative viability (SW 900; first compound 1.265 µM): 0.224
